# Test results published in US20080269276A1, “COMPOSITIONS USEFUL FOR TREATING IRRITABLE BOWEL SYNDROME” (Dynogen Pharmaceuticals, Inc., priority 2007, published 2008).
# Entries after “also recorded” stand apart in the source; their conditions may differ.
# Key:
# [1] = tested on: males and females with IBS-c; assay: Phase 2a randomized, double-blind, placebo-controlled clinical trial: weekly symptom-based assessments (OSGA, abdominal discomfort/pain, constipation, satisfaction with bowel habit); type: in vivo, human
# Protocol: The Clinical Trial reported herein was a Phase 2a, Randomized, Double-Blind, Placebo-Controlled Study. In the Study, 91 males and females with IBS-c were administered doses of DDP733 (0.2, 0.5, 0.8 and 1.4 mg) and placebo, three times a day for 28 days (4 weeks). Study Details: • Phase 2a, randomized, double-blinded, placebo controlled parallel group design • 91 males and females with IBS-c • 7 week study with 4 weeks of treatment • Five treatment groups: • DDP733: 0.2 mg, 0.5 mg, 0.8 mg or 1.4 mg three times a day (approximately 30 to 60 minutes before breakfast, lunch and dinner) • PLACEBO: Three times a day (approximately 30 to 60 minutes before breakfast, lunch and dinner). • Assess effect on relief of IBS-c using symptom-based assessment including the following weekly questions: Overall response (OSGA); Abdominal discomfort/pain; Constipation; and Satisfaction with bowel habit. • Assess effect on pharmacodynamic measure (gastrointestinal transit) at baseline and week 4 using radio-opaque markers. • Establish safety profile. Key Subject Inclusion Criteria: • 1. Male or female from 18 to 65 years of age, inclusive • 2. IBS-c for at least three months prior to randomization as defined by the subject's response to the criteria below adapted from the Rome II • Modular Questionnaire: • a. Subject experiences discomfort or pain in the abdomen during at least 3 weeks (at least one day in each week) in the last 3 months. • b. Subject experiences one or more of the following: • i. Discomfort or pain that gets better or stops after a bowel movement • ii. Change in the usual number of bowel movements (either more or fewer) when the discomfort or pain starts • iii. Softer or harder stools than usual when the discomfort or pain starts • c. Patient experiences two or more of the following at least one-fourth (¼) of the occasions or days in the last three months: • i. Fewer than three bowel movements per week (0-2) • ii. Hard or lumpy stools • iii. Straining during a bowel movement • d. Patient experiences none of the following more than one-fourth (¼) of the occasions or days in the last three months: • i. More than three bowel movements a day (4 or more) • ii. Loose, mushy or watery stools • iii. Having to rush to the toilet to have a bowel movement • 3. Completion of at least six days of daily diary assessments in the week of screening prior to Visit 3 with a documented average stool consistency score of ≦2.5. Stool consistency was rated as 1=very hard, 2=hard, 3=formed, 4=loose, 5=watery. Clinical Symptoms were assessed using the following weekly questions: [table] […] Subjects were defined as Overall SGA responders, prior to the study, if: • 1. Somewhat relieved or better at 100% of SGAs (Response 3 at all weekly time points), or considerably/completely relieved for at least 50% of SGAs (Response 1 or 2 for at least 2 of the 4 weekly timepoints) or considerably/completely relieved at Week 4 (Response 1 or 2 at Week AND • 2. No more than 5 days of laxative use excluding bulk-forming laxatives over the 4-week treatment period.
# [2] = tested on: males and females with IBS-c; assay: Phase 2a clinical trial: safety measurements (vital signs, adverse events, clinical laboratory testing, ECGs); type: in vivo, human; conditions: 0.2, 0.5, 0.8 or 1.4 mg three times a day for 28 days
# Protocol: The Clinical Trial reported herein was a Phase 2a, Randomized, Double-Blind, Placebo-Controlled Study. In the Study, 91 males and females with IBS-c were administered doses of DDP733 (0.2, 0.5, 0.8 and 1.4 mg) and placebo, three times a day for 28 days (4 weeks). Study Details: • Phase 2a, randomized, double-blinded, placebo controlled parallel group design • 91 males and females with IBS-c • 7 week study with 4 weeks of treatment • Five treatment groups: • DDP733: 0.2 mg, 0.5 mg, 0.8 mg or 1.4 mg three times a day (approximately 30 to 60 minutes before breakfast, lunch and dinner) • PLACEBO: Three times a day (approximately 30 to 60 minutes before breakfast, lunch and dinner). Safety measurements included monitoring of vital signs and adverse events, clinical laboratory testing and performance of electrocardiograms (ECGs).
# [3] = overall responders within the 1.4 mg, 3 times a day treatment group
smiles,measurement,setting,value
"O=C(N[C@H]1CN2CCC1CC2)c1c[nH]c2ccsc2c1=O [DDP733, (R)—N-1-azabicyclo[2.2.2]oct-3-yl-4,7-dihydro-7-oxothieno[3,2-b]pyridine-6-carboxamide]","subjects reporting overall symptom relief (Overall SGA responders, OSGA)","[1]; 1.4 mg three times a day (4.2 mg/day), oral, 4-week treatment, IBS-c subjects, placebo about 15%",54%
same,statistical significance on clinical endpoint overall symptom relief (OSGA),"[1]; 1.4 mg three times a day (4.2 mg/day), Pearson chi squared test",Statistical significance (using the Pearson chi squared test) was achieved
same,OSGA clinical response at one week post-treatment,"[1]; 1.4 mg three times a day, one week post-treatment (FIG. 2)","lost (i.e., returned to the level of placebo); also recorded: loss of response (return to level of placebo response)"
same,"other weekly subject global assessments (abdominal discomfort/pain, constipation, satisfaction with bowel habit)","[1]; 4.2 mg/day dose, Questionnaires 2, 3 and 4",consistent pattern of improvement
same,diarrhea reported by responders during the treatment period,"[1]; 4.2 mg/day group, responders",no responders reported any diarrhea
same,laxative use among responders showing overall symptom relief,"[1]; 4.2 mg/day group, responders, treatment period",relief was achieved in all responders without the use of laxatives
same,constipation and satisfaction with bowel habit,[1]; [3],also improved on treatment
same,"weekly pain response (Variable 2, abdominal discomfort/pain)",[1]; [3],a decrease in weekly pain response was observed
same,"drug related adverse events (nausea, pruritis and rash)",[2],"mainly mild-moderate, transient in nature and required no intervention"
same,lab or ECG abnormalities,[2],no pattern of lab or ECG abnormalities
